Measured values as given in patent US20260374766A1, “METHODS FOR TREATING CANCER” (Antares Therapeutics, Inc., priority 2022, published 2026).
Like-named read-outs stand apart in the source and are kept apart here.

Assays:
NUGC3 p53 Y220C = assay: Cell Proliferation Assay (CellTiter-Glo, CTG), NUGC3 p53 Y220C; type: cell-based; conditions: Homo sapiens, NUGC-3, 120 h, NUGC3 cells, 5 days
Experimental: (§1) Inducible p53 Y220C and R273H constructs (Tet-One inducible expression system; Takara) were stably expressed in NClH1299 cells by lentiviral transduction. NUGC3, A549, BxPC3, T3M4, HuH7, HCC2935, MFE296, NClH1299, NClH1299-inducible p53 Y220C, and NClH1299-inducible p53 R273H cell lines were used for cell proliferation assay. 250-500 cells were seeded in each well of 384 plate and then compounds were dispensed into each well using Echo or Tecan. After 5 days of incubation, equal volume of CellTiter-Glo reagent (G7570; Promega) was added into each well and the plate was incubated at room temperature for 10 minutes with shaking. The luminescent signal was measured by PheraStar microplate reader and IC50 was calculated.

H1299 p53 Y220C = assay: Cell Proliferation Assay (CellTiter-Glo, CTG), H1299 p53 Y220C (NClH1299-inducible p53 Y220C); type: cell-based; conditions: Homo sapiens, NCI-H1299, 120 h, NClH1299-inducible p53 Y220C cells, 5 days
Experimental: as §1

H1299 p53 R273H = assay: Cell Proliferation Assay (CellTiter-Glo, CTG), H1299 p53 R273H (NClH1299-inducible p53 R273H); type: cell-based; conditions: Homo sapiens, NCI-H1299, 120 h, NClH1299-inducible p53 R273H cells, 5 days
Experimental: as §1

[1] = target: T1, p53 Y220C mutant protein (amino acid residues 94-293) (Homo sapiens, UniProt P04637, Y220C); assay: Surface Plasmon Resonance (SPR) assay, Kd_kinetic; type: binding; conditions: SPR; p53 Y220C; read-out: SPR P53 Y220C KD kinetic
T1 construct: p53 Y220C mutant protein (amino acid residues 94-293)
Experimental: Surface Plasmon Resonance (SPR) Assay Protocol
SPR experiments were performed on a Biacore 8K instrument. […] The running buffer contained 50 mM Tris, pH 7.5, 100 mM NaCl, 1 mM DTT, 0.01% Brij35, 0.05% Tween-20 and 1% DMSO. The assay temperature was maintained at 16 or 20 °C and data were fit into the 1:1 binding model using the Biacore Insight Evaluation software.

p53 Y220C = p53 Y220C (Homo sapiens, UniProt P04637, Y220C); assay: Luciferase Reporter Assay (Luc), p53 response element, NClH1299 cells with inducible p53 Y220C; type: cell-based; conditions: 6 hour; for AC50: read-out: Luc P53 Y220C AC50
Experimental: Luciferase Reporter Assay Protocol
The cells were then used for p53 reporter assay. 5,000 cells were seeded in each well of 384 plate and cultured in 0.5 ug/mL doxycycline (D3072; Sigma) containing medium for 24 hours before compound treatment. After 6 hour of compound treatment, equal volume of One-Glo reagent (E6110; Promega) was added to each well and the plate was incubated for 5 minutes with shaking at room temperature. The luciferase activity was immediately measured with PheraStar microplate reader.

[2] = NClH1299 cells with inducible p53 Y220C
[3] = NClH1299 cells with inducible p53 Y220C, 10 uM tool compound as positive control
[4] = luciferase reporter, NClH1299 inducible p53 Y220C

T1 sequence (P04637 94-293, stated change not applied): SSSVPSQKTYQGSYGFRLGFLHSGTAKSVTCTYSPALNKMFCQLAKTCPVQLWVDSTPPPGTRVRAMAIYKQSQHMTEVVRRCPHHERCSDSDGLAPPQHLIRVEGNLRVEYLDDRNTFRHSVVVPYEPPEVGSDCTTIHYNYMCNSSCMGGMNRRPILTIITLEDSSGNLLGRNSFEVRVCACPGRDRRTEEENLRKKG

Compound `CNC(=O)c1cnc(OC)c(NCC#Cc2cc3c(N[C@@H]4CCNC[C@@H]4F)cccn3c2SC(F)(F)F)c1` [Example 498] has an IC50 (NUGC3 p53 Y220C) of less than 750 nM, an IC50 (H1299 p53 Y220C) of less than 750 nM and an IC50 (H1299 p53 R273H) of no less than 10000 nM. For the same compound, the Kd [1] was less than 10 nM, the AC50 (p53 Y220C; [2]) was less than 750 nM and the Emax (p53 Y220C; [3]) was greater than 90%.
`CNC(=O)c1ccc(NCC#Cc2nn3c(N[C@@H]4CCN(C)C[C@@H]4F)cccc3c2SC(F)F)c(OC)c1` [Example 366] was tested, and the IC50 (NUGC3 p53 Y220C; CellTiter-Glo) was less than 750 nM, the IC50 (H1299 p53 Y220C; CellTiter-Glo) was less than 750 nM and the IC50 (H1299 p53 R273H; CellTiter-Glo) was no less than 10000 nM. For the same compound, the Emax (p53 Y220C; [4]) was 70 to 80%.
In the case of `CNC(=O)c1ccc(OC)c(NCC#Cc2cc3c(N[C@@H]4CCN(C[C@@H](C)O)C[C@@H]4F)nccn3c2SC(F)(F)F)c1` [Example 401], the IC50 (NUGC3 p53 Y220C; CellTiter-Glo) is reported as less than 750 nM, the IC50 (H1299 p53 Y220C; CellTiter-Glo) is reported as less than 750 nM and the IC50 (H1299 p53 R273H; CellTiter-Glo) is reported as 8000 to 10000 nM. It also gave an AC50 (p53 Y220C; [4]) of less than 750 nM and an Emax (p53 Y220C; [4]) greater than 90%.
`CNC(=O)c1ccc(NCC#Cc2nc3c(N[C@H]4C[C@@H]5COC[C@@H](N5)[C@H]4F)cccn3c2SC(F)(F)F)c(OC)c1` [Example 279] was tested, and the IC50 (NUGC3 p53 Y220C; CellTiter-Glo) was greater than 3000 nM, the IC50 (H1299 p53 Y220C; CellTiter-Glo) was greater than 3000 nM and the IC50 (H1299 p53 R273H; CellTiter-Glo) was no less than 10000 nM. The Emax (p53 Y220C; [4]) was 70 to 80%.
With `CNS(=O)(=O)c1ccc(NCC#Cc2cc3c(N[C@@H]4CCN(C)C[C@@H]4F)cccn3c2SC(F)(F)F)c(OC)c1` [Example 360] the IC50 (NUGC3 p53 Y220C; CellTiter-Glo) was greater than 3000 nM, the IC50 (H1299 p53 Y220C; CellTiter-Glo) was greater than 3000 nM and the IC50 (H1299 p53 R273H; CellTiter-Glo) was 5000 to 8000 nM. For the same compound, the AC50 (p53 Y220C; [4]) was greater than 3000 nM and the Emax (p53 Y220C; [4]) was less than 70%.
Compound `COc1ccc(C(=O)NC[C@H](O)CO)cc1NCC#Cc1cc2c(N[C@@H]3CCN(C)C[C@@H]3F)cccn2c1SC(F)(F)F` [Example 425] has an IC50 (NUGC3 p53 Y220C; CellTiter-Glo) of less than 750 nM, an IC50 (H1299 p53 Y220C; CellTiter-Glo) of less than 750 nM and an IC50 (H1299 p53 R273H; CellTiter-Glo) of no less than 10000 nM. The AC50 (p53 Y220C; [4]) was less than 750 nM and the Emax (p53 Y220C; [4]) was greater than 90%.
Work on `CNC(=O)c1ccc(NCC#Cc2cc3c(N[C@@H]4CCN(C)C[C@@H]4F)cccn3c2CC(F)(F)F)c(OC)c1` [Example 510] yielded an IC50 (NUGC3 p53 Y220C) of less than 750 nM, an IC50 (H1299 p53 Y220C) of less than 750 nM and a Kd [1] of less than 10 nM. For the same compound, the AC50 (p53 Y220C; [2]) was less than 750 nM.
Work on `COc1cc(P(C)(C)=O)ncc1NCC#Cc1cc2c(N[C@@H]3CCN(C)C[C@@H]3F)cccn2c1SC(F)(F)F` [Example 439, 2-(3-{[6-(dimethylphosphoryl)-4-methoxypyridin-3-yl]amino}prop-1-yn-1-yl)-N-[(3S,4R)-3-fluoro-1-methylpiperidin-4-yl]-3-[(trifluoromethyl)sulfanyl]indolizin-8-amine] yielded an IC50 (NUGC3 p53 Y220C; CellTiter-Glo) of less than 750 nM, an IC50 (H1299 p53 Y220C; CellTiter-Glo) of less than 750 nM and an IC50 (H1299 p53 R273H; CellTiter-Glo) of no less than 10000 nM. The AC50 (p53 Y220C; [4]) was less than 750 nM and the Emax (p53 Y220C; [4]) was greater than 90%.
For `COc1cc(S(N)(=O)=O)ccc1NCC#Cc1cc2c(N[C@@H]3CCN(C)C[C@@H]3F)cccn2c1SC(F)(F)F` [Example 362], the IC50 (NUGC3 p53 Y220C; CellTiter-Glo) was greater than 3000 nM, the IC50 (H1299 p53 Y220C; CellTiter-Glo) was greater than 3000 nM and the IC50 (H1299 p53 R273H; CellTiter-Glo) was 8000 to 10000 nM. It also gave an AC50 (p53 Y220C; [4]) greater than 3000 nM and an Emax (p53 Y220C; [4]) of 70 to 80%.
For `CNC(=O)c1ccc(OC)c(NCC#Cc2cc3c(N[C@@H]4CCN(C)C[C@@H]4F)cccn3c2CC(F)(F)F)c1` [Example 509], the IC50 (NUGC3 p53 Y220C) was less than 750 nM, the IC50 (H1299 p53 Y220C) was less than 750 nM and the Kd [1] was less than 10 nM. It also gave an AC50 (p53 Y220C; [2]) of less than 750 nM.
Work on `CN1CC[C@@H](Nc2cccn3c(SC(F)(F)F)c(C#CCNc4cc(C(=O)NCC(C)(C)O)ccc4OC4COC4)cc23)[C@@H](F)C1` [Example 459, 3-{[3-(8-{[(3S,4R)-3-fluoro-1-methylpiperidin-4-yl]amino}-3-[(trifluoromethyl)sulfanyl]indolizin-2-yl)prop-2-yn-1-yl]amino}-N-(2-hydroxy-2-methylpropyl)-4-(oxetan-3-yloxy)benzamide] yielded an IC50 (NUGC3 p53 Y220C) of less than 750 nM, an IC50 (H1299 p53 Y220C) of less than 750 nM and an IC50 (H1299 p53 R273H) of no less than 10000 nM. For the same compound, the AC50 (p53 Y220C; [2]) was less than 750 nM and the Emax (p53 Y220C; [3]) was greater than 90%.
In the case of `CNC(=O)c1ccc(NCC#Cc2nc3c(N[C@@H]4C[C@H]5COC[C@H](N5)[C@@H]4F)cccn3c2SC(F)(F)F)c(OC)c1` (relative stereo) [Example 251, rel-4-{[3-(8-{[(1R,5R,6S,7S)-6-fluoro-3-oxa-9-azabicyclo [3.3.1]nonan-7-yl]amino}-3-[(trifluoromethyl)sulfanyl]imidazo[1,2-a]pyridin-2-yl)prop-2-yn-1-yl]amino}-3-methoxy-N-methylbenzamide], the IC50 (NUGC3 p53 Y220C; CellTiter-Glo) is reported as 1500 to 3000 nM, the IC50 (H1299 p53 Y220C; CellTiter-Glo) is reported as 1500 to 3000 nM and the IC50 (H1299 p53 R273H; CellTiter-Glo) is reported as no less than 10000 nM. It also gave an Emax (p53 Y220C; [4]) of 80 to 90%.
